The values that follow come from ChEMBL document CHEMBL5038670, “Design, Synthesis, and Biological Evaluation of Apcin-Based CDC20 Inhibitors” (ACS Med Chem Lett, 2022).

SMILES strings stand for the structures. Calls of active or inactive are those of the source. The calls are words filed in the database; no cut-off is given here.

In assay [1] the test system is MDA-MB-231. The assay is described as follows: Cytotoxicity against human TNBC MDA-MB-231 cells assessed as cell viability at 300 uM measured after 72 hrs relative to control. The conditions noted are these: for viability at 300 µM: read-out: Activity. It is filed as functional.
Assay [2] has as its system MDA-MB-468. In words: Cytotoxicity against human TNBC MDA-MB-468 cells assessed as cell viability at 300 uM measured after 72 hrs relative to control. It is filed as functional. The conditions noted are these: for viability at 300 µM: read-out: Activity.
Assay [3] deals with MDA-MB-231. The assay is described as follows: Cytotoxicity against human TNBC MDA-MB-231 cells assessed as cell viability measured after 72 hrs. It is filed as functional, cell-based. To be noted: MDA-MB-231, 72 h.
For assay [4], the system named is MDA-MB-468. The assay is described as follows: Cytotoxicity against human TNBC MDA-MB-468 cells assessed as cell viability measured after 72 hrs. To be noted: MDA-MB-468, 72 h. It is filed as functional, cell-based.
For assay [5], the species on record is Sus scrofa. The assay is described as follows: Inhibition of porcine brain tubulin polymerization at 10 uM measured for 60 mins by spectrophotometric method relative to control.
Assay [6] deals with MDA-MB-468. The assay is described as follows: Upregulation of cyclin B1 level in human TNBC MDA-MB-468 cells at 80 uM measured after 24 hrs by western blot analysis relative to control. It is filed as functional, cell-based.
For assay [7], the species on record is Sus scrofa. The assay is described as follows: Induction of porcine brain tubulin polymerization at 10 uM measured for 60 mins by spectrophotometric method relative to control. It is filed as tissue-based.
In assay [8] the test system is MDA-MB-468. The assay is described as follows: Downregulation of cyclin B1 level in human TNBC MDA-MB-468 cells at 30 uM measured after 24 hrs by western blot analysis relative to control. It counts as functional, cell-based. For orientation: A western blot detects proteins with antibodies after separation by electrophoresis.
Assay [9] has as its system MDA-MB-468. The assay is described as follows: Downregulation of se-curin level in human TNBC MDA-MB-468 cells at 30 uM measured after 24 hrs by western blot analysis relative to control. It is filed as functional, cell-based.
In assay [10] the test system is MDA-MB-468. The assay is described as follows: Effect on BimEL expression in human TNBC MDA-MB-468 cells at 10 to 30 uM measured after 24 hrs by western blot analysis relative to control. It counts as functional, cell-based. The conditions noted are these: dose 10-30 µM.
Assay [11] has as its system MDA-MB-468. The assay is described as follows: Effect on BimL expression in human TNBC MDA-MB-468 cells at 10 to 30 uM measured after 24 hrs by western blot analysis relative to control. To be noted: dose 10-30 µM. It is filed as functional, cell-based.
Assay [12] relates to MDA-MB-468. In words: Effect on BimS expression in human TNBC MDA-MB-468 cells at 10 to 30 uM measured after 24 hrs by western blot analysis relative to control. The conditions noted are these: dose 10-30 µM. It counts as functional, cell-based.
Assay [13] deals with MDA-MB-468. In words: Downregulation of CDC20 level in human TNBC MDA-MB-468 cells at 10 uM measured after 24 hrs by western blot analysis relative to control. It is filed as functional, cell-based.
For assay [14], the system named is MDA-MB-468. In words: Downregulation of CDC20 level in human TNBC MDA-MB-468 cells at 30 uM measured after 24 hrs by western blot analysis relative to control. It counts as functional, cell-based.
Assay [15] deals with MDA-MB-468. The assay is described as follows: Antitumor activity against human MDA-MB-468 cells assessed as induction of cell death at 30 uM measured after 24 hour relative to control. It is filed as functional, cell-based.
Assay [16] relates to MDA-MB-468. The assay is described as follows: Upregulation of cyclin B1 level in human TNBC MDA-MB-468 cells at 10 uM measured after 24 hrs by western blot analysis relative to control. It counts as functional, cell-based.
In assay [17] the test system is MDA-MB-468. In words: Downregulation of se-curin level in human TNBC MDA-MB-468 cells at 10 uM measured after 24 hrs by western blot analysis relative to control. It is filed as functional, cell-based.

What is called IC50 is the point on the concentration scale where inhibition reaches its midpoint.

Turning to `Cc1ncc([N+](=O)[O-])n1CCOC(=O)NC(Nc1ncccn1)C(F)(F)Cl` (stereo unspecified), the viability at 300 µM with MDA-MB-231 [1] is 52%; with MDA-MB-468 [2], 40%.
Turning to `Cc1ncc([N+](=O)[O-])n1CCOC(=O)NC(Nc1nc(-c2ccc(OC(F)(F)F)cc2)cs1)C(F)(F)Cl` (stereo unspecified), the figures for the IC50 in the assay with MDA-MB-231 [3] and in the assay on MDA-MB-468 [4] were 12 µM and 23.3 µM, respectively.
`COc1ccc(-c2csc(NC(NC(=O)OCCn3c([N+](=O)[O-])cnc3C)C(F)(F)Cl)n2)cc1O` (stereo unspecified): the IC50 amounted to 224 µM in the assay on MDA-MB-231 [3] and 82.5 µM in the assay with MDA-MB-468 [4].
The matching figures for `Cc1ncc([N+](=O)[O-])n1CCOC(=O)NC(Nc1nc(-c2ccc(Cl)cc2Cl)cs1)C(F)(F)Cl` (stereo unspecified): 21.4 µM and 14.4 µM.
For `Cc1ncc([N+](=O)[O-])n1CCOC(=O)NC(Nc1nc2ccc(F)cc2s1)C(F)(F)Cl` (stereo unspecified) the same measures were 80.7 µM and 73.7 µM.
For `Cc1sc(NC(NC(=O)OCCN2CCOCC2)C(F)(F)Cl)nc1-c1ccc(OC(F)(F)F)cc1` (stereo unspecified) the same measures were 14.2 µM and 32.6 µM.
In the case of `Cc1ncc([N+](=O)[O-])n1CCOC(=O)NC(Nc1nc2ccc(OC(F)(F)F)cc2s1)C(F)(F)Cl` (stereo unspecified), the IC50 in the assay on MDA-MB-231 [3] turned out to be 21.2 µM; in the assay on MDA-MB-468 [4], 11.2 µM. The inhibition result in the assay filed under Sus scrofa [5] was “inactive”.
As for `COC(=O)c1sc(NC(NC(=O)OCCn2c([N+](=O)[O-])cnc2C)C(F)(F)Cl)nc1-c1ccccc1` (stereo unspecified), the IC50 with MDA-MB-231 [3] is 42.1 µM; with MDA-MB-468 [4], 23.5 µM.
The matching figures for `Cc1ncc([N+](=O)[O-])n1CCOC(=O)NC(Nc1nc2ccc([N+](=O)[O-])cc2s1)C(F)(F)Cl` (stereo unspecified): 37.8 µM and 40.1 µM.
`Cc1ncc([N+](=O)[O-])n1CCOC(=O)NC(Nc1ncc(C#N)cn1)C(F)(F)Cl` (stereo unspecified): the outcome in the assay on MDA-MB-468 [2] was inactive.
On to `Cc1sc(NC(NC(=O)OCCn2c([N+](=O)[O-])cnc2C)C(F)(F)Cl)nc1-c1ccc(Cl)cc1` (stereo unspecified), for which the half-maximal inhibitory concentration (IC50) in the assay on MDA-MB-231 [3] stood at 12.6 µM; in the assay on MDA-MB-468 [4], 10.1 µM. The inhibition entry in the assay listed under Sus scrofa [5] was “inactive”.
Take `Cc1ncc([N+](=O)[O-])n1CCOC(=O)NC(Nc1nc2ccc(Cl)cc2s1)C(F)(F)Cl` (stereo unspecified): the IC50 with MDA-MB-231 [3] was determined as 44.5 µM; with MDA-MB-468 [4], 42.2 µM.
As for `Cc1ncc([N+](=O)[O-])n1CCOC(=O)NC(Nc1ncccn1)C(Cl)(Cl)Cl` (stereo unspecified), the half-inhibitory concentration (IC50) in the assay on MDA-MB-231 [3] is 91.4 µM; in the assay on MDA-MB-468 [4], 53.5 µM. The result with MDA-MB-468 [6] was Active.
With `Cc1ncc([N+](=O)[O-])n1CCOC(=O)NC(Nc1nc(-c2ccc(C#N)c(F)c2)cs1)C(F)(F)Cl` (stereo unspecified), the values for the concentration for half-maximal inhibition (IC50) with MDA-MB-231 [3] and in the assay on MDA-MB-468 [4] were 24.1 µM and 14.4 µM, respectively. The inhibition result in the assay filed under Sus scrofa [5] is “inactive”.
For the molecule `CC(=O)O[C@H]1C(=O)[C@@]2(C)[C@H]([C@H](OC(=O)c3ccccc3)[C@]3(O)C[C@H](OC(=O)[C@H](O)[C@@H](NC(=O)c4ccccc4)c4ccccc4)C(C)=C1C3(C)C)[C@]1(OC(C)=O)CO[C@@H]1C[C@@H]2O`, the inhibition result in the assay listed under Sus scrofa [7] is “Active”.
Take `Cc1ncc([N+](=O)[O-])n1CCOC(=O)NC(Nc1nc2ccccc2[nH]1)C(F)(F)Cl` (stereo unspecified): the viability at 300 µM in the assay on MDA-MB-231 [1] turned out to be 70%; with MDA-MB-468 [2] it was 47%.
As to `Cc1ncc([N+](=O)[O-])n1CCOC(=O)NC(Nc1nc2c(F)cc(F)cc2s1)C(F)(F)Cl` (stereo unspecified), the IC50 with MDA-MB-231 [3] stood at 106 µM; in the assay with MDA-MB-468 [4] it was 101 µM.
For `COc1ccc(-c2csc(NC(NC(=O)OCCn3c([N+](=O)[O-])cnc3C)C(F)(Cl)Cl)n2)cc1` (stereo unspecified) the same measures were 63.5 µM and 39.3 µM.
The matching figures for `Cc1ncc([N+](=O)[O-])n1CCOC(=O)NC(Nc1nc2ccc(C#N)cc2s1)C(F)(F)Cl` (stereo unspecified): 80.8 µM and 116 µM.
With `Cc1ncc([N+](=O)[O-])n1CCOC(=O)NC(Nc1nc2ccc(S(C)(=O)=O)cc2s1)C(F)(F)Cl` (stereo unspecified), the IC50 in the assay with MDA-MB-231 [3] was 230 µM; with MDA-MB-468 [4] it was greater than 300 µM.
`Cc1sc(NC(NC(=O)OCCn2c([N+](=O)[O-])cnc2C)C(F)(F)Cl)nc1-c1ccc(OC(F)(F)F)cc1` (stereo unspecified): the IC50 in the assay on MDA-MB-231 [3] is 12 µM; with MDA-MB-468 [4], 11.4 µM. Besides, in the assay listed under Sus scrofa [5], the inhibition entry is “inactive”. In addition, the outcome in the assay on MDA-MB-468 [8], in the assay with MDA-MB-468 [9], with MDA-MB-468 [13], in the assay on MDA-MB-468 [14] and in the assay on MDA-MB-468 [15] was Active. Further, the Activity entry in the assay with MDA-MB-468 [10], in the assay on MDA-MB-468 [11] and in the assay on MDA-MB-468 [12] was “Dose-Dependent Effect” each time.
Turning to `COc1ccc(-c2csc(NC(NC(=O)OCCN3CCOCC3)C(F)(F)Cl)n2)cc1` (stereo unspecified), the IC50 was 52.6 µM with MDA-MB-231 [3] and 47.5 µM with MDA-MB-468 [4].
For the molecule `COC(=O)c1ccc(-c2csc(NC(NC(=O)OCCn3c([N+](=O)[O-])cnc3C)C(F)(F)Cl)n2)cc1` (stereo unspecified), the results for the IC50 with MDA-MB-231 [3] and in the assay on MDA-MB-468 [4] were 34.5 µM and 18.7 µM, respectively.
As to `Cc1ncc([N+](=O)[O-])n1CCOC(=O)NC(Nc1nc2ccccc2s1)C(F)(F)Cl` (stereo unspecified), the viability at 300 µM in the assay with MDA-MB-231 [1] came out at 66%; in the assay on MDA-MB-468 [2], 21%.
For `CC(=O)Nc1ccc(-c2csc(NC(NC(=O)OCCn3c([N+](=O)[O-])cnc3C)C(F)(F)Cl)n2)cc1` (stereo unspecified), the IC50 in the assay with MDA-MB-231 [3] was determined as 75.7 µM; with MDA-MB-468 [4], 66.5 µM.
On to `Cc1ncc([N+](=O)[O-])n1CCOC(=O)NC(Nc1nc(-c2ccc(S(C)(=O)=O)cc2)cs1)C(F)(F)Cl` (stereo unspecified), for which the 50% inhibitory concentration (IC50) in the assay on MDA-MB-231 [3] is greater than 300 µM; with MDA-MB-468 [4], 103 µM.
The matching figures for `COc1ccc(-c2csc(NC(NC(=O)OCCn3c([N+](=O)[O-])cnc3C)C(F)(F)Cl)n2)cc1` (stereo unspecified): 63.1 µM and 49.2 µM.
Take `Cc1sc(NC(NC(=O)OCCn2c([N+](=O)[O-])cnc2C)C(F)(Cl)Cl)nc1-c1ccc(OC(F)(F)F)cc1` (stereo unspecified): the IC50 in the assay on MDA-MB-231 [3] stood at 10.8 µM; with MDA-MB-468 [4] it was 13.2 µM. Also, the outcome with MDA-MB-468 [16], with MDA-MB-468 [8], in the assay on MDA-MB-468 [17], with MDA-MB-468 [9], in the assay with MDA-MB-468 [14] and with MDA-MB-468 [15] was Active. The Activity result in the assay on MDA-MB-468 [10], in the assay with MDA-MB-468 [11] and in the assay on MDA-MB-468 [12] was “Dose-Dependent Effect” each time. The result in the assay with MDA-MB-468 [13] was inactive.
Regarding `Cc1ncc([N+](=O)[O-])n1CCOC(=O)NC(N1CCOCC1)C(F)(F)Cl` (stereo unspecified), the result with MDA-MB-231 [1] and with MDA-MB-468 [2] was inactive.
For the molecule `Cc1ncc([N+](=O)[O-])n1CCOC(=O)NC(Nc1c(Cl)nc(N)nc1Cl)C(F)(F)Cl` (stereo unspecified), in the assay on MDA-MB-231 [1], the outcome was inactive. Also, the viability at 300 µM in the assay with MDA-MB-468 [2] is 52%.
